Assay results from the PolyMetriX glass transition set.
± gives the standard deviation of the reports.

Q: With `*c1ccc(Oc2ccc(-c3ccc(Oc4ccc(N5C(=O)c6ccc(Oc7c(C)cc(Cc8cc(C)c(Oc9ccc%10c(c9)C(=O)N(*)C%10=O)c(C)c8)cc7C)cc6C5=O)cc4)cc3)cc2)cc1` (repeat unit) as the compound, how does the glass transition temperature read?
A: 248.00 °C

Q: Which glass transition temperature does the source give for `*CCCCCCCCCCOC(=O)c1ccccc1C(=O)O*` (repeat unit) here?
A: -14.00 °C

Q: For `*Oc1ccc(CC(NC(=O)CCc2ccc(OC(*)=O)cc2)C(=O)OCCCC)cc1` (repeat unit), which glass transition temperature is on record?
A: 67.00 °C

Q: With `*Oc1cccc(Oc2ccc(C(=O)c3ccc(P(=O)(c4ccccc4)c4ccc(C(=O)c5ccc(*)cc5)cc4)cc3)cc2)c1` (repeat unit) as the compound, how does the glass transition temperature read?
A: 201.00 °C

Q: With `*CC(CCCCCCOc1ccc(/N=N/c2ccc(Br)cc2)cc1)COC(=O)CCCCC(=O)O*` (repeat unit) as the compound, how does the glass transition temperature read?
A: 24.00 °C

Q: With `*CCCCCCOC(=O)OCCCCCCN1C(=O)c2ccc(-c3ccc(-c4ccc5c(c4)C(=O)N(*)C5=O)cc3)cc2C1=O` (repeat unit) as the compound, how does the glass transition temperature read?
A: 73.00 °C

Q: With `*O[Si](C)(C)O[Si](C)(C)O[Si](C)(C)OC(C)CCCCC(*)C` (repeat unit) as the compound, how does the glass transition temperature read?
A: -94.00 °C

Q: For `*CC(*)c1cc(C(=O)Oc2ccc(OCCCC)cc2)ccc1C(=O)Oc1ccc(OCCCC)cc1` (repeat unit), which glass transition temperature is on record?
A: 103.60 °C

Q: For `*c1ccc(Oc2c(C)cc(-c3cc(C)c(Oc4ccc(N5C(=O)c6ccc(Oc7ccccc7Oc7ccc8c(c7)C(=O)N(*)C8=O)cc6C5=O)cc4C(F)(F)F)c(C)c3)cc2C)c(C(F)(F)F)c1` (repeat unit), which glass transition temperature is on record?
A: 270.00 °C

Q: Which glass transition temperature does the source give for `*CC(C)(C)CS(=O)(=O)CC(C)(C)COC(=O)NCCCCCCNC(=O)O*` (repeat unit) here?
A: 30.00 °C

Q: Which glass transition temperature does the source give for `*/C=C/C1CC(*)C(C#N)(CCC)C1` (repeat unit) here?
A: 108.00 °C

Q: Which glass transition temperature does the source give for `*c1ccc(*)s1` (repeat unit) here?
A: 152.17 ± 89 °C

Q: For `*Oc1ccc(S(=O)(=O)c2ccc(Oc3ccc(NC(=O)c4ccc(-c5ccc(C(=O)Nc6ccc(*)cc6)c(C)c5)cc4C)cc3)cc2)cc1` (repeat unit), which glass transition temperature is on record?
A: 251.00 °C

Q: For `*c1cccc(-c2nc3ccc(-c4ccc5nc(*)sc5c4)cc3s2)c1` (repeat unit), which glass transition temperature is on record?
A: 495.00 °C

Q: With `*Oc1ccc(Oc2ccc(Oc3ccc(C(=O)c4ccc(*)cc4)cc3)cc2)cc1` (repeat unit) as the compound, how does the glass transition temperature read?
A: 150.50 °C

Q: Which glass transition temperature does the source give for `*/C=C/C1CC(*)C2C(=O)N(CCCCC)C(=O)C12` (repeat unit) here?
A: 99.00 °C

Q: Which glass transition temperature does the source give for `*c1cccc(P(=O)(c2ccccc2)c2cccc(-n3c(=O)c4cc5c(=O)n(*)c(=O)c5cc4c3=O)c2)c1` (repeat unit) here?
A: 331.00 °C

Q: Which glass transition temperature does the source give for `*c1ccc2c(c1)C(=O)N(c1ccc(NC(=O)C(F)(F)C(F)(F)C(F)(F)C(F)(F)C(F)(F)C(F)(F)C(=O)Nc3ccc(N4C(=O)c5ccc(C(*)(C(F)(F)F)C(F)(F)F)cc5C4=O)cc3)cc1)C2=O` (repeat unit) here?
A: 265.00 °C

Q: Which glass transition temperature does the source give for `*c1c(C)cc(C)c(-n2c(=O)c3cc4c(=O)n(*)c(=O)c4cc3c2=O)c1C` (repeat unit) here?
A: 399.8 °C

Q: With `*OP(=O)(Oc1ccc(NC(=O)OCCCCCCOC(=O)Nc2ccc(*)cc2)cc1)c1ccccc1` (repeat unit) as the compound, how does the glass transition temperature read?
A: -3.00 °C

Q: With `*CCC1C[N+](C)(C)CC1*` (repeat unit) as the compound, how does the glass transition temperature read?
A: -6.70 °C

Q: With `*Oc1ccc(C2(c3ccc(OC(=O)c4ccc(Oc5ccc(C6(c7ccc(Oc8ccc(C(*)=O)cc8)cc7)CCC(C(C)(C)C)CC6)cc5)cc4)cc3)C3CC4CC(C3)CC2C4)cc1` (repeat unit) as the compound, how does the glass transition temperature read?
A: 197.00 °C

Q: Which glass transition temperature does the source give for `*Oc1ccccc1C(=O)OC(=O)c1ccccc1OC(=O)CCCCC(*)=O` (repeat unit) here?
A: 55.00 °C

Q: For `*CC(*)(C)C(=O)OCCCCCCCCCCOc1ccc(/N=N/c2ccc([N+](=O)[O-])cc2)cc1` (repeat unit), which glass transition temperature is on record?
A: 55.00 °C

Q: With `*CC(*)(CCCCC)C(=O)OC` (repeat unit) as the compound, how does the glass transition temperature read?
A: 53.00 °C

Q: Which glass transition temperature does the source give for `*CCCCCCCCCCCN1C(=O)c2ccc(C(=O)Oc3ccc(-c4ccc(OC(=O)c5ccc6c(c5)C(=O)N(*)C6=O)cc4)cc3)cc2C1=O` (repeat unit) here?
A: 97.00 °C
